Source: ChEMBL document CHEMBL4321867, “Optimization of LpxC Inhibitor Lead Compounds Focusing on Efficacy and Formulation for High Dose Intravenous Administration” (J Med Chem, 2020)
Converted amounts (≈) assume the structure as drawn.

Legend:
Klebsiella aerogenes = experiment: microbe, parasite or virus in culture
Burkholderia cepacia = experiment: microbe, parasite or virus in culture
physchem [1] = details: 5% mannitol/water, pH 8.2
Morganella morganii = experiment: microbe, parasite or virus in culture
Enterobacter cloacae = experiment: microbe, parasite or virus in culture
Citrobacter freundii = experiment: microbe, parasite or virus in culture
in vitro [2] = details: human, liver microsomes
Escherichia coli [3] = experiment: microbe, parasite or virus in culture
physchem [4] = details: buffer, pH 4
in vitro [5] = details: rat, plasma
Moraxella catarrhalis = experiment: microbe, parasite or virus in culture
physchem [6] = details: buffer, pH 9
in vitro [7] = details: rat, liver microsomes
physchem [8] = details: n-octanol/phosphate buffer, pH 7.4
in vitro [9] = details: human, hepatocytes
Proteus mirabilis = experiment: microbe, parasite or virus in culture
Escherichia coli [10] = experiment: microbe, parasite or virus in culture; details: ATCC 25922
Serratia marcescens = experiment: microbe, parasite or virus in culture
Pseudomonas aeruginosa [11] = experiment: microbe, parasite or virus in culture; details: ATCC 27853
physchem [12] = details: buffer, pH 7
Pseudomonas aeruginosa [13] = experiment: microbe, parasite or virus in culture
Acinetobacter baumannii = experiment: microbe, parasite or virus in culture
[14] = tested on: Stenotrophomonas maltophilia; experiment: microbe, parasite or virus in culture
in vitro [15] = details: rat, hepatocytes
in vivo [16] = details: mouse, sc, 150 mg/kg
Klebsiella oxytoca = experiment: microbe, parasite or virus in culture
in vivo [17] = details: Wistar, rat, iv, 10 mg/kg
Klebsiella pneumoniae [18] = experiment: microbe, parasite or virus in culture
Haemophilus influenzae = experiment: microbe, parasite or virus in culture
Klebsiella pneumoniae [19] = experiment: microbe, parasite or virus in culture; details: T6474

SMILES: C[C@@](CCN1Cc2cc(C#CC#C[C@H]3C[C@@H]3[C@@H](O)CO)cn2C1=O)(C(=O)NO)S(C)(=O)=O
- MIC90 (Klebsiella aerogenes): 2 µg/mL (≈ 4.31 µM)
- MIC90 (Burkholderia cepacia): 8 µg/mL (≈ 17.3 µM)
- solubility (physchem [1]): 25000 µg/mL (≈ 53900 µM)
- MIC90 (Morganella morganii): 1 µg/mL (≈ 2.16 µM)
- MIC90 (Enterobacter cloacae): 4 µg/mL (≈ 8.63 µM)
- MIC90 (Citrobacter freundii): 1 µg/mL (≈ 2.16 µM)
- microsomal CLint at 1 µM (in vitro [2]): < 10 µL/min/mg
- MIC90 (Escherichia coli [3]): 2 µg/mL (≈ 4.31 µM)
- solubility at 24 h (physchem [4]): > 780 µg/mL
- fraction unbound at 1 µM (in vitro [5]): 0.018
- MIC90 (Moraxella catarrhalis): > 16 µg/mL
- solubility at 24 h (physchem [6]): > 780 µg/mL
- microsomal CLint at 1 µM (in vitro [7]): < 10 µL/min/mg
- logD (physchem [8]): 0.5
- hepatocyte CLint at 1 µM (in vitro [9]): < 2 µL/min/1e6 cells
- MIC90 (Proteus mirabilis): 1 µg/mL (≈ 2.16 µM)
- MIC (Escherichia coli [10]): 0.5 µg/mL (≈ 1.08 µM)
- MIC90 (Serratia marcescens): 0.5 µg/mL (≈ 1.08 µM)
- MIC (Pseudomonas aeruginosa [11]): 1 µg/mL (≈ 2.16 µM)
- solubility at 24 h (physchem [12]): > 780 µg/mL
- MIC90 (Pseudomonas aeruginosa [13]): 2 µg/mL (≈ 4.31 µM)
- MIC90 (Acinetobacter baumannii): > 16 µg/mL
- MIC90 [14]: > 16 µg/mL
- hepatocyte CLint at 1 µM (in vitro [15]): 10.2 µL/min/1e6 cells
- AUC(0-t) at 24 h (in vivo [16]): 347 µg·h/mL
- MIC90 (Klebsiella oxytoca): 4 µg/mL (≈ 8.63 µM)
- clearance at 24 h (in vivo [17]): 3.1 mL/min/kg
- MIC90 (Klebsiella pneumoniae [18]): 4 µg/mL (≈ 8.63 µM)
- MIC90 (Haemophilus influenzae): ≤ 0.03 µg/mL
- MIC (Klebsiella pneumoniae [19]): 1 µg/mL (≈ 2.16 µM)
